The record followed here is US20100120887A1, “SUSTAINED RELEASE FORMULATION OF MELATONIN” (THE TRUSTEES OF COLUMBIA UNIVERSITY IN THE CITY OF NEW YORK, priority 2007, published 2010).

A short description of the assay: Initial clinical evaluation, open clinical treatment of circadian sleep disorders and depression (case reports). In kind it is in vivo, human. An excerpt: The present invention describes tablet formulation, in vitro and in vivo pharmacokinetics in a healthy, middle-aged subject group, and a range of potential uses. In the past three years, the present invention has been used in open clinical treatment of a variety of cases comprising circadian sleep disorders and depression. The strategy for treatment concentrates on serious cases, from which application to less severe cases—far more common population-wide—can be inferred. For example, in Delayed Sleep Phase Disorder (DSPD), the patient cannot fall asleep before wee hours of the night or early morning because of misalignment of the internal circadian timing system with external day and night. […] Melatonin is the chronobiotic par exemplar. Milder circadian misalignment is highly prevalent in the population, often starting in adolescence. A typical example is the worker who must maintain a 9-5 schedule but cannot fall asleep before 1 AM (“early insomnia”), leaving six hours for sleep availability, leading to daytime fatigue, disorientation, lapses of alertness, and weekend oversleeping that can trigger depressed mood. Such people comprise a primary market for the present invention, with the prospect of reduced reliance on sleeping pills.
Thus far, an ensemble of chronotherapeutic interventions has been used in clinical trials. […]

Consider `COc1ccc2[nH]cc(CCNC(C)=O)c2c1` [melatonin, N-acetyl-5-methoxytryptamine], for which, where the note is “Case 2: seasonal depression, sleep not before 1 AM, melatonin at 6:30 PM plus light therapy 45 minutes”, the “sleep onset and depressive symptoms under treatment” value is “go to sleep at 11:30 PM with remission of depressive symptoms”. The “sleep onset under treatment” value (Case 3: history of seasonal depression, melatonin around 9 PM plus intermittent light therapy) was “able to sleep at midnight without effort”.
